Test results reported in PubChem BioAssay (NCI).
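1) Cells in 96-well plates. 2) Compound, 48 h, 5 concentrations. 3) Linear interpolation between surrounding doses. 4) Unreached endpoint = highest concentration. GI50: concentration for 50% inhibition of growth. TGI denotes the concentration required for complete inhibition of growth.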

Key:
Assay in all cases: NCI anticancer screen, dose series, 48 h
[1] = tested on: MOLT-4 leukemia
[2] = tested on: NCI-H226 lung
[3] = tested on: NCI-H23 lung
[4] = tested on: NCI-H460 lung
[5] = tested on: OVCAR-3 ovarian
[6] = tested on: OVCAR-4 ovarian
[7] = tested on: OVCAR-5 ovarian
[8] = tested on: PC-3 prostate
[9] = tested on: RPMI-8226 leukemia
[10] = tested on: RXF 393 renal
[11] = tested on: SF-268 CNS
[12] = tested on: SF-295 CNS
[13] = tested on: SF-539 CNS
[14] = tested on: SK-MEL-2 melanoma
[15] = tested on: SK-MEL-28 melanoma
[16] = tested on: SK-MEL-5 melanoma
[17] = tested on: SK-OV-3 ovarian
[18] = tested on: SN12C renal
[19] = tested on: SNB-19 CNS
[20] = tested on: SNB-75 CNS
[21] = tested on: SR leukemia
[22] = tested on: SW-620 colon
[23] = tested on: T-47D breast
[24] = tested on: TK-10 renal
[25] = tested on: UACC-257 melanoma
[26] = tested on: UACC-62 melanoma
[27] = tested on: UO-31 renal

For `COc1ccc(OC)c(/C=C/C(=O)c2nc3ccccc3n2Cc2ccc(F)cc2)c1`, the GI50 [1] was 2.15 µM, the TGI [1] was 7.98 µM and the GI50 [2] was 4.03 µM. For the same molecule, the TGI [2] was 25.5 µM, the GI50 [3] was 2.24 µM and the TGI [3] was 6.62 µM. For the same molecule, the GI50 [4] was 1.67 µM, the TGI [4] was 4 µM and the GI50 [5] was 2.17 µM. The TGI [5] was 5.6 µM, the GI50 [6] was 5.02 µM and the TGI [6] was greater than 100 µM. The GI50 [7] was 2.45 µM, the TGI [7] was 5.56 µM and the GI50 [8] was 3.82 µM. It also gave a TGI [8] greater than 100 µM, a GI50 [9] of 2.05 µM and a TGI [9] of 5.89 µM. For the same molecule, the GI50 [10] was 1.92 µM, the TGI [10] was 4.41 µM and the GI50 [11] was 3.5 µM. It also gave a TGI [11] greater than 100 µM, a GI50 [12] of 3.05 µM and a TGI [12] of 13.2 µM. The GI50 [13] was 2.14 µM, the TGI [13] was 4.67 µM and the GI50 [14] was 1.94 µM. The TGI [14] was 4.19 µM, the GI50 [15] was 2.18 µM and the TGI [15] was 4.68 µM. The GI50 [16] was 2.73 µM, the TGI [16] was 10.1 µM and the GI50 [17] was 11.4 µM. For the same molecule, the TGI [17] was greater than 100 µM, the GI50 [18] was 3.47 µM and the TGI [18] was greater than 100 µM. It also gave a GI50 [19] of 2.31 µM, a TGI [19] of 6.08 µM and a GI50 [20] of 1.54 µM. It also gave a TGI [20] of 6.66 µM, a GI50 [21] of 2.2 µM and a TGI [21] of 7.4 µM. For the same molecule, the GI50 [22] was 2.03 µM, the TGI [22] was 4.63 µM and the GI50 [23] was 2.95 µM. For the same molecule, the TGI [23] was greater than 100 µM, the GI50 [24] was 3.26 µM and the TGI [24] was 17 µM. For the same molecule, the GI50 [25] was 4.03 µM, the TGI [25] was 27.3 µM and the GI50 [26] was 1.93 µM. For the same molecule, the TGI [26] was 5.06 µM, the GI50 [27] was 2.37 µM and the TGI [27] was 8.61 µM.
